Measured values as given in patent US20250368700A1, “NOVEL PEPTIDE FOR TREATING AN INFECTIOUS DISEASE OR CONDITION” (OMNIX MEDICAL LTD., priority 2022, published 2025).
In brackets after ≈: the same amount, converted by molar mass. Read-outs that look alike come from different tables or passages of the source. Where a SMILES comes first, the peptide text is derived from it. Where no end group is shown, it is not given here. [ ]: non-standard residue; d: D form.

Experiments:
[1] = test system: Pseudomonas aeruginosa ATCC ® 27853 (Sens.); type: cell-based
From the text: (§1) As bacterial growth progresses, OD625 nm values raised.

[2] = test system: Escherichia coli ATCC ® BAA-3048 (MDR); type: cell-based
From the text: as §1

[3] = test system: Pseudomonas aeruginosa ATCC ® BAA-2795 (MDR); type: cell-based
From the text: as §1

[4] = test system: Escherichia coli ATCC ® 25922 (Sens.); type: cell-based
From the text: as §1

[5] = test system: Klebsiella pneumoniae ATCC ® 700603 (Sens.); type: cell-based
From the text: as §1

[6] = test system: Escherichia coli ATCC ® BAA-2452 (NDM-1); type: cell-based
From the text: as §1

[7] = test system: Pseudomonas aeruginosa ATCC ® BAA-2797 (MDR); type: cell-based
From the text: as §1

[8] = test system: Klebsiella pneumoniae ATCC ® BAA-2146 (NDM-1); type: cell-based
From the text: as §1

Proteinase-K (ProtK) = Proteinase-K (ProtK) (Parengyodontium album, UniProt P06873); type: in vitro ADME; details: 2.5 μg protein, 2 hours at 37° C.
Procedure: Methods: Proteinase-K (ProtK) was used to assess the stability of OMN71 versus native OMN70 and Bovine Serum Albumin (BSA). 2.5 μg of each protein were incubated with increasing concentrations of 2.5 and 20 ng of ProtK as specified, for 2 hours at 37° C. Samples were boiled at 100° C. for five minutes and separated on 16.5% polyacrylamide gel. The gel was then stained with Coomassie Blue and excess dye was removed overnight.
Results: FIGS. 3A and 3B depict a Coomassie Blue stained gel detecting the following: FIG. 3A: Lanes 1, 2 and 3: […] of OMN70 subjected to 0/2.5/20 ng of Proteinase-K (ProtK), respectively. Lanes 4, 5 and 6: […] of OMN71 subjected to 0/2.5/20 ng of ProtK, respectively. FIG. 3B: Lanes 7, 8 and 9: […] of Bovine Serum Albumin (BSA) subjected to 0/2.5/20 ng of ProtK, respectively.

[9] = test system: K. pneumoniae strain ATCC® 43816; experiment: Mouse lung infection model induced by K. pneumoniae, lung bacterial burden; type: in vivo; details: neutropenic CD-1 female mice, 100 mg/kg intranasal two hours post-infection, 24 hours
Procedure: Neutropenic CD-1 female mice were intratracheally inoculated with K. pneumoniae strain ATCC 43816 (75×10^3 CFU/mouse). Two hours post-inoculation, OMN71-treated group was administered by an intranasal injection of 100 mg/kg and the vehicle group was administered with 0.9% saline solution. Bacterial burden in the lungs was evaluated 24 hours post-infection. Control group of untreated mice n=2 (CTRL ▪), vehicle saline treated mice n=3 (vehicle ●), OMN71-treated group at 100 mg/kg n=3 (OMN71 100 mg/kg ▴).
Methods: Female CD-1 mice, weighing between 20-25 g were inoculated with K. pneumoniae bacteria to induce a lung infection. All animals were monitored during the entire period of the study and clinical signs were recorded. Briefly, eight animals were rendered neutropenic by two intraperitoneal injections of cyclophosphamide (Sigma-Aldrich, Italy) at 150 and 100 mg/kg, four and one day before the infection, respectively. […] The mice were anesthetized by IP injection of Ketamine-Xylazine at low dose and intratracheally inoculated with 50 μL of the bacterial suspension (75×10^3 CFU/mouse). Two hours post-infection (T2h), 100 mg/kg OMN71 in a total volume of 50 μl saline (0.9% NaCl) was administered intranasal. […] The mice were monitored during the entire study and scored for clinical signs of infection where no mortality or morbidity were observed.

Hsd:ICR (CD-1) mice = experiment: Safety of intra-nasal (IN) administration in mice (histopathology, mortality); type: in vivo; set-up: key to histopathological findings grade, Spleen / histopathological findings grade, Lungs / histopathological findings grade, Kidneys / histopathological findings grade, Heart / histopathological findings grade, Liver: Grade 0—The tissue appears normal, without any changes at all; Grade 1—Minimal pathological findings; Grade 2—Mild pathological findings; Grade 3—Moderate pathological findings; Grade 4—Severe pathological findings; details: 100 mg/kg IN
Procedure: Methods: Adverse effects of OMN71 on mice following intra-Nasal (IN) administration, safety was evaluated by tissue histopathology and mortality. 100 mg/kg of OMN71 in a total volume of 50 μl saline (0.9% NaCl) was administered intranasal (IN) to Hsd:ICR (CD-1) mice (20-25 g) in order to assess the presence any toxic effects. Control mice were administered with saline solution (0.9% NaCl) as vehicle. On the last time-point of each experiment (at T24h), mortality was assessed, the mice were sacrificed by IP injection of Ketamine-Xylazine and spleen, lungs, kidneys, heart and liver were collected for histopathology.
Slides of liver, heart, kidneys, lungs, and spleen were stained with Hematoxylin & Eosin (H&E) and were sent for evaluation. The H&E-stained slides were examined and pictures were taken using microscope equipped with a camera at objective magnification of ×4 and ×10.

[10] = test system: K. pneumoniae strain ATCC® 43816; type: cell-based

Sequence of Proteinase-K (ProtK) (P06873 106-384, species assumed): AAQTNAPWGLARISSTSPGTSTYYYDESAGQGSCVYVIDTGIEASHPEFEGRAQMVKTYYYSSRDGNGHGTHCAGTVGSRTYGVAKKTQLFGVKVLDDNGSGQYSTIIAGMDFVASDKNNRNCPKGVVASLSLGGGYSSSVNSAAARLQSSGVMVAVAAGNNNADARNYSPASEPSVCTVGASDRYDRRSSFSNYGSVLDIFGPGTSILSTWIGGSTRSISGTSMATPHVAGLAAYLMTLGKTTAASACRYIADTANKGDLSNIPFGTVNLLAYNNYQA

| Molecule | MIC values [1] | MIC values [2] | MIC values [3] | MIC values [4] | MIC values [5] | MIC values [6] | MIC values [7] | MIC values [8] | degradation by ProtK (gel band) (Proteinase-K (ProtK); 2.5 ng ProtK) | degradation by ProtK (gel band) (Proteinase-K (ProtK); 20 ng ProtK) | bacterial burden reduction compared to the vehicle-treated group [9] | histopathological findings grade, Heart (Hsd:ICR (CD-1) mice; T24 h) | histopathological findings grade, Kidneys (Hsd:ICR (CD-1) mice; T24 h) | histopathological findings grade, Liver (Hsd:ICR (CD-1) mice; T24 h) | histopathological findings grade, Lungs (Hsd:ICR (CD-1) mice; T24 h) | histopathological findings grade, Spleen (Hsd:ICR (CD-1) mice; T24 h) | mortality (Hsd:ICR (CD-1) mice; at T24h) | mortality or other adverse effects (Hsd:ICR (CD-1) mice; monitored for an additional week) | MIC [10] |
| --- | --- | --- | --- | --- | --- | --- | --- | --- | --- | --- | --- | --- | --- | --- | --- | --- | --- | --- | --- |
| FLNALKNFAKTAGKRLKSLLN-NH2 [OMN70, Cyanophlyctin, reference compound] | 16 µg/mL | 16 µg/mL | 8 µg/mL | 4 µg/mL | 8 µg/mL | 8 µg/mL | 16 µg/mL | 16 µg/mL |  |  |  |  |  |  |  |  |  |  |  |
| CC(C)C[C@@H](NC(=O)[C@H](N)CC(N)=O)C(=O)N[C@H](CC(C)C)C(=O)N[C@H](CO)C(=O)N[C@H](CCCCN)C(=O)N[C@H](CC(C)C)C(=O)N[C@H](CCCNC(=N)N)C(=O)N[C@H](CCCCN)C(=O)NCC(=O)N[C@H](C)C(=O)N[C@@H](C(=O)N[C@H](CCCCN)C(=O)N[C@H](C)C(=O)N[C@H](Cc1ccccc1)C(=O)N[C@H](CC(N)=O)C(=O)N[C@H](CCCCN)C(=O)N[C@H](CC(C)C)C(=O)N[C@H](C)C(=O)N[C@H](CC(N)=O)C(=O)N[C@H](CC(C)C)C(=O)N[C@H](Cc1ccccc1)C(N)=O)[C@H](C)O [OMN72] | 64 µg/mL (≈ 27.3 µM) | 32 µg/mL (≈ 13.6 µM) | 16 µg/mL (≈ 6.82 µM) | 32 µg/mL (≈ 13.6 µM) | 16 µg/mL (≈ 6.82 µM) | 32 µg/mL (≈ 13.6 µM) | 64 µg/mL (≈ 27.3 µM) | 32 µg/mL (≈ 13.6 µM) |  |  |  |  |  |  |  |  |  |  |  |
| Bovine Serum Albumin [BSA] |  |  |  |  |  |  |  |  | partially degrade | completely degrade |  |  |  |  |  |  |  |  |  |
| CC(C)C[C@@H](NC(=O)[C@H](N)Cc1ccccc1)C(=O)N[C@H](CC(N)=O)C(=O)N[C@H](C)C(=O)N[C@H](CC(C)C)C(=O)N[C@H](CCCCN)C(=O)N[C@H](CC(N)=O)C(=O)N[C@H](Cc1ccccc1)C(=O)N[C@H](C)C(=O)N[C@H](CCCCN)C(=O)N[C@@H](C(=O)N[C@H](C)C(=O)NCC(=O)N[C@H](CCCCN)C(=O)N[C@H](CCCNC(=N)N)C(=O)N[C@H](CC(C)C)C(=O)N[C@H](CCCCN)C(=O)N[C@H](CO)C(=O)N[C@H](CC(C)C)C(=O)N[C@H](CC(C)C)C(=O)N[C@H](CC(N)=O)C(N)=O)[C@H](C)O [OMN71] (H-[dF][dL][dN][dA][dL][dK][dN][dF][dA][dK][dT][dA]G[dK][dR][dL][dK][dS][dL][dL][dN]-NH2; N-terminus assumed) | 16 µg/mL (≈ 6.82 µM) | 4 µg/mL (≈ 1.7 µM) | 4 µg/mL (≈ 1.7 µM) | 4 µg/mL (≈ 1.7 µM) | 8 µg/mL (≈ 3.41 µM) | 4 µg/mL (≈ 1.7 µM) | 16 µg/mL (≈ 6.82 µM) | 16 µg/mL (≈ 6.82 µM) |  |  | ~1 log CFU/lungs | 0 | 0 | 0 | 0 | 0 | No mortality | no mortality or any other adverse effects | 4 µg/mL (≈ 1.7 µM) |
